US20240209022A1, “NOVEL PEPTIDE HAVING ANTI-INFLAMMATORY AND TISSUE REGENERATIVE ACTIONS” (KOREA RESEARCH INSTITUTE OF BIOSCIENCE AND BIOTECHNOLOGY, priority 2020, published 2024)
“Also recorded” adds a separate entry of the source.

B1: Amuc_1409: SEQ ID NO: 15, functional fragment obtained by eliminating the leader sequence from SEQ ID NO: 14; protein derived from Akkermansia muciniphila (protein)
chain: IPESSVPAAAVSSIKGAYPNAGPIEWDSEMHGMERIYEAEFRINGFQFDVKIAPDGKIVRIKEEIAASSLPEAVRASVLKRYPGCRIKEAEKITEGELVRYKVEVADSRDDYDVLIAPDGNILHVDR
modifications: Amuc_1409_fragment
notes: protein derived from Akkermansia muciniphila

Key:
[1] = test system: collagen induced arthritis (CIA) model; assay: Collagen induced arthritis (CIA) rheumatoid arthritis model; type: in vivo, DBA/1J mice; details: vs PBS buffer group; for thickness of the ankle joint: at the end of the experiment
[2] = test system: MIA-induced degenerative arthritis model; assay: MIA-induced degenerative arthritis model; type: in vivo, C57BL/6J mice; details: for diameter of the knee joint: day 1 after MIA injection, i.p.
Protocol: As a degenerative arthritis model, 9-week-old specific pathogen free (SPF) male C57BL/6J mice were anesthetized, the area around the right knee joint was cleanly shaved, and 10 μL of MIA solution (monosodium iodoacetate 0.5 mg in 10 μL 0.9% sterile saline) was injected into the knee joint cavity to induce arthritis. From 3 days before MIA (monosodium iodoacetate) solution injection, Amuc_1409 or PEP001, PEP002, PEP003, PEP004, PEP005, PEP006, PEP007, PEP008, PEP009, PEP010, PEP011, PEP012, or PEP013 was dissolved in PBS buffer at a concentration of 6.7 μM and then injected into the mouse peritoneal cavity at 150 μL per animal once a day at the same time. On day 3 (0 days) after administration of Amuc_1409 or PEP001 to PEP013, an additional intraperitoneal injection was given 1 hour before MIA injection, the drug was intraperitoneally injected once a day at the same time after MIA injection, and the experiment was terminated on the 30th day after MIA injection. In the control group, the same volume of PBS buffer was injected intraperitoneally. After MIA injection, the diameter of the knee joint was measured using a caliper for 7 days at 2-day intervals (0, 1, 3, 5, and 7 days) to evaluate swelling caused by inflammatory changes of the joint. […] At this time, the weight bearing on the limb was lower as arthritis was more severe. The weight-bearing weight (g) of each of both paws was measured, and in this experiment, the value was expressed as the ratio (%) of the right hind limb with arthritis to the total hind limb. Weight bearing ratio (%)=weight-bearing weight of right hind limb with arthritis (g)/weight-bearing weight of both hind limbs (g)×100 After termination of the experiment, the test animals were sacrificed, then the knee joint tissue of the mouse was fixed with 10% neutral buffered formalin, and the bone was decalcified with a 0.5 M EDTA solution. Next, the joint tissue was embedded in paraffin to prepare a 5 μm joint section, and Safranin O staining was performed to histopathologically analyze the degree of damage to the cartilage tissue. At this time, the degree of damage to the cartilage tissue was evaluated by examining the degree of safranin O staining of the sections and scored according to OARSI (Osteoarthritis Research Society International grade) guidelines. The scoring criteria according to the OARSI guidelines are as follows (Table 1). [table]

[3] = test system: animal model of metabolic disease accompanied by obesity/diabetes and chronic inflammation; assay: High-fat diet obesity/diabetic metabolic disease model; type: in vivo, C57BL/6J mice; details: for fasting blood glucose: after fasting for 16 hours at the end of the test; for blood glucose in insulin resistance experiment (ITT): after insulin administration, time as stated in the value; for blood glucose in insulin resistance experiment (ITT) / body weight / AUC value of the insulin resistance experiment / LDL-C level in blood / TC (total cholesterol) level in blood / abdominal fat: vs PBS buffer group; for body weight: oral, 3 weeks on high-fat diet; for maintenance of the decreased blood glucose in insulin resistance experiment: until 120 minutes after insulin
Protocol: An animal model of metabolic disease accompanied by obesity/diabetes and chronic inflammation was induced by feeding a high-fat diet.
The experiment in the groups administered with Amuc_1409 or PEP001 to PEP005 was performed using 8-week-old SPF male C57BL/6J mice, and the metabolic disease accompanied by obesity/diabetes and chronic inflammation was induced by ad libitum feeding of a high-fat diet for 45 weeks or 8 weeks. Specifically, mice fed a high-fat diet for 45 weeks were fed a high-fat diet for an additional 3 weeks, and Amuc_1409 was dissolved in PBS buffer at a concentration of 2.4 μM and then orally administered to the mice by 150 μL per animal at the same time once a day until the end of the experiment, or mice fed a high-fat diet for 8 weeks were fed a high-fat diet for an additional 3 weeks, and PEP001, PEP002, PEP003, PEP004, or PEP005 was dissolved in PBS buffer at a concentration of 2.4 μM and then orally administered to the mice by 150 μL per animal at the same time once a day until the end of the experiment. To the control group, PBS buffer was orally administered in the same manner.
For the experiment in the groups administered with PEP006 to PEP013, 8-week-old male C57BL/6J mice were used, and the metabolic disease accompanied by obesity/diabetes and chronic inflammation was induced by ad libitum feeding of a high-fat diet for 32, 50, or 53 weeks. Mice fed a high-fat diet for 32 weeks were fed a high-fat diet for an additional 3 weeks, and a novel tetrapeptide PEP006 was dissolved in PBS buffer at a concentration of 0.15 μg/150 μL (PEP006) and then orally administered to the mice by 150 μL per animal at the same time until the end of the test, mice fed a high-fat diet for 50 weeks were fed a high-fat diet for an additional 3 weeks, and a novel tetrapeptide PEP007, PEP008, PEP009, or PEP010 was dissolved in PBS buffer at a concentration of 0.2 μg/150 μL (PEP007 to PEP013) and then orally administered to the mice by 150 μL per animal at the same time until the end of the test, and mice fed a high-fat diet for 53 weeks were fed a high-fat diet for an additional 3 weeks, and a novel […] PEP011, PEP012, or PEP013 was dissolved in PBS buffer at a concentration of 0.2 μg/150 μL (PEP007 to PEP013) and then orally administered to the mice by 150 μL per animal at the same time until the end of the test. To the control group, PBS buffer was orally administered in the same manner.
For all animals, general symptoms were observed immediately before administration at the start of administration, and the body weight was measured until the end of the test after group separation.
Insulin (Humalog, 1 unit/kg) was intraperitoneally injected into mice fasted for 4 hours at 2 weeks after the start of test substance administration (2 weeks in groups administered with Amuc_1409 and PEP001 to PEP005 and 3 weeks in groups administered with PEP006 to PEP013), and then blood glucose at 30 minutes, 60 minutes, 90 minutes, and 120 minutes was measured from a small amount of blood obtained through a wound at the tip of the tail using ACCU-CHECK (Roche), thereby performing an insulin tolerance test (ITT).
At the end of the test, fasting blood glucose was measured from a small amount of blood obtained through a wound at the tip of the tail of the mouse fasted for 16 hours using ACCU-CHECK, and blood was collected from the orbital venous plexus using a heparin-treated capillary tube. The collected blood was immediately centrifuged at 10,000 rpm (4° C.) for 10 minutes to separate plasma, and then subjected to analysis of total cholesterol (TC) and low-density lipoprotein cholesterol (LDL-C), which are blood abnormal lipid indicators, using an automated blood biochemical analyzer.

[4] = 2 weeks and 4 weeks after MIA injection, vs PBS buffer group
[5] = days 3, 5, and 7 after MIA injection, vs PBS buffer group
[6] = 2 weeks after MIA injection, vs PBS buffer group
[7] = 4 weeks after MIA injection, vs PBS buffer group

| Molecule | thickness of the ankle joint [1] | arthritis index (clinical score by date) [1] | swelling of the hind paws by macrophotography [1] | weight bearing ratio [2, 4] | diameter of the knee joint ([2]; vs PBS buffer group) | thickness of the knee joint [2, 5] | fasting blood glucose [3] | blood glucose in insulin resistance experiment (ITT) [3] | body weight [3] | maintenance of the decreased blood glucose in insulin resistance experiment [3] | AUC value of the insulin resistance experiment [3] | LDL-C level in blood [3] | TC (total cholesterol) level in blood [3] | abdominal fat [3] | weight bearing ratio [2, 6] | weight bearing ratio [2, 7] | also measured |
| --- | --- | --- | --- | --- | --- | --- | --- | --- | --- | --- | --- | --- | --- | --- | --- | --- | --- |
| AVS (AVSSIKGAY) [PEP004] | significantly decreased | significantly decreased from day 32 after the first CII injection to the experiment end day | reduced overall | significantly increased | significantly decreased | significantly decreased | decreased | decreased at 30 minutes after insulin administration | significantly decreased | significantly maintained until 120 minutes | decreased | significantly decreased | tended to decrease | decreased | – | – | – |
| AGAY (PEP006) | significantly decreased | significantly decreased on day 28 after the first injection of CII; also recorded: tended to decrease from day 30 to the experiment end day | remarkably improved | – | – | – | – | decreased to a significant level from 30 minutes to 120 minutes after insulin administration | – | – | decreased close to a significant level | – | – | – | significantly increased | significantly increased | – |
| GAY [PEP005] | significantly decreased | significantly decreased from day 28 after the first CII injection to the experiment end day | reduced overall | significantly increased | tended to decrease | significantly decreased | decreased | decreased at 30 minutes after insulin administration | significantly decreased | – | decreased | significantly decreased | tended to decrease | decreased | – | – | – |
| VGAY (PEP010) | significantly decreased | significantly decreased from day 30 after the first CII injection to the experiment end day | remarkably improved | – | tended to decrease | – | – | decreased to a significant level from 30 minutes to 120 minutes after insulin administration | – | – | decreased close to a significant level | – | – | – | significantly increased | significantly increased | thickness of the knee joint ([2]; day 3 after MIA injection, vs PBS buffer group): significantly decreased; thickness of the knee joint ([2]; day 5 after MIA injection, vs PBS buffer group): significantly decreased; thickness of the knee joint ([2]; day 7 after MIA injection, vs PBS buffer group): significantly decreased |
| AIS [PEP013] | tended to decrease | tended to decrease | relieved overall | tended to be improved | – | – | – | decreased close to a significant level from 30 minutes to 120 minutes after insulin administration | – | – | decreased close to a significant level | – | – | – | – | – | – |
| B1 | significantly decreased | – | reduced overall | significantly increased | significantly decreased | significantly decreased | significantly decreased | decreased from 30 minutes to 120 minutes after insulin administration | decreased from the initial body weight | significantly maintained until 120 minutes | decreased close to a significant level | – | – | significantly decreased | – | – | arthritis index ([1]; after day 30 until the experiment end day): significantly decreased; arthritis index ([1]; day 30 after the first CII injection): decreased close to a significant level; histopathological changes in hind paw tissue (H&E): inflammatory cell infiltration, synovial proliferation, pannus formation [1]: significantly diminished; quantitative histopathological arthritis index [1]: significantly decreased or tended to decrease; histopathological findings in knee joint tissue, safranin O staining ([2]; after termination of the experiment): only a slight loss of safranin O was observed in the cartilage zone and the overall cartilage morphology was maintained; degree of cartilage destruction by OARSI score ([2]; vs PBS buffer group): significantly decreased |
